Assay results: PMC10938758, “A phenotypic screen of the Global Health Priority Box identifies an insecticide with anthelmintic activity” (Parasites & Vectors, 2024)

Legend:
[1] = test system: acetylcholine esterase (AChE); conditions: in vitro and in vivo; direct or indirect effect not confirmed; cited from earlier work
[2] = test system: HepG2 human hepatoma cells; assay: Mitotoxicity on HepG2 cells (galactose medium, crystal violet); format: cell-based; conditions: 48 h, D-galactose medium, serum-starved
Method: The cytotoxic and mitotoxic activity of MMV1794206 on HepG2 human hepatoma cells was evaluated using an established protocol. […] Monepantel and moxidectin (prepared in the same manner as the test compound) were included as reference compounds. Two compounds, doxorubicin (cytotoxic; Sigma-Aldrich, USA) and M-666 (mitotoxic; [57]), were used as positive controls at a single concentration of 10 µM. A solution of DMEM* + 0.25% (v/v) DMSO was used as a negative control. HepG2 cells were seeded into wells of a 96-well plate in 80 µl of DMEM* (at 1 × 10^5 cells per well) and allowed to adhere for 16 h at 37 °C and 5% (v/v) CO2 at > 90% humidity prior to incubation with individual compounds, at a final volume of 100 µl. For the assessment of mitochondrial toxicity, cells were starved of serum (DMEM* without FBS) for 4 h prior to the incubation with compounds [60, 61]. Following 48 h of incubation with compounds, cell viability was determined by crystal violet staining. The absorbance (595 nm) of treated cells was normalised using the negative controls (viability: 100%) to calculate the cell viability. All compounds and controls were tested in triplicate. […]

C. elegans young adults = assay: C. elegans dose-response assay, motility; design: species or system Caenorhabditis elegans
Method: The dose–response assay for C. elegans followed a well-established protocol and was employed to evaluate the potency of hit compounds against this nematode. Test and positive-control compounds as well as negative controls were prepared in 96-well microplates (cf.). One hundred C. elegans in 50 μl of LB* were added to each well to give a final volume of 100 μl. Plates were then placed in an incubator at 20 °C for 40 h. At 40 h, worm activity was captured using a WMicroTracker ONE unit. Raw activity counts for each well were normalised to the negative controls. The compound concentrations were log10-transformed and fitted using a variable-slope four-parameter equation, using the ordinary least squares fit model, employing GraphPad Prism (v.9.1.0). A one-way ANOVA with a Tukey multiple comparison test or an unpaired t-test was used to establish statistically significant differences in larval motility.

[3] = test system: adult females of H. contortus; assay: Motility of H. contortus adult females (video scoring); design: species or system Haemonchus contortus; conditions: 40 μM
Method: The activity of two test compounds was assessed on adult female specimens of H. contortus in an established assay. The compound was added in triplicate to the wells of a 24-well plate (Corning, USA) at a concentration of 40 μM in 500 μl of RPMI*. Two positive-control compounds, monepantel and moxidectin, and a negative control containing 1% (v/v) DMSO only were included in triplicate on the same plate. Three adult females were added to each of the triplicate wells containing either the test compound or the controls and placed in a CO2 incubator (10% [v/v] CO2, 38 °C, > 90% relative humidity) for 24 h. A video recording (30 s) of each well was taken at 3 h, 6 h, 12 h and 24 h during the total incubation period to assess the reduction in worm motility, which was scored as 3 (‘good’), 2 (‘low’), 1 (‘very low’) or 0 (‘no movement’; cf.). For each test or control compound, the motility scores for each of the triplicate wells were calculated, normalised with reference to the negative control (100% motility) and recorded as a percentage. A two-way ANOVA with a Tukey multiple comparison test was used to establish statistically significant differences in worm motility.

H. contortus xL3s = assay: H. contortus dose-response assay, xL3 motility; design: species or system Haemonchus contortus
Method: The dose–response assay for H. contortus followed a well-established protocol; it was employed to evaluate the potency of hit compounds against this nematode. Test compounds were assessed individually for an effect on the motility of xL3s (10-point, twofold serial dilution in LB*, 40–0.16 μM). One compound, monepantel (prepared in the same manner as the test compounds), was used as a positive control. A solution of LB* was used as a negative control. The test and positive-control compounds were arrayed in triplicate across individual flat-bottom 96-well microplates, with six wells on each plate containing the negative control. Three hundred xL3s of H. contortus in 50 μl of LB* were added to each well to give a final volume of 100 μl. Plates were then placed in a CO2 incubator (10% [v/v] CO2, 38 °C, > 90% humidity). […] Over a period of 15 min, disturbance of an infrared beam in individual wells was recorded as a worm activity count. Raw activity counts for each well were normalised to the negative controls. The compound concentrations were log10-transformed and fitted using a variable-slope four-parameter equation, using the ordinary least squares fit model, employing GraphPad Prism (v.9.1.0). Larval development was established at 168 h of incubation with compound, as described previously. The development inhibition and phenotypes of larvae were examined microscopically. A one-way analysis of variance (ANOVA) with a Tukey multiple comparison test or an unpaired t-test was used to establish statistically significant differences in larval motility or development.

## CC(F)c1ncnc(NCCc2ccc(OC(F)(F)F)cc2)c1Cl (stereo not shown) [MMV1794206, flufenerim]
[1]
  AChE activity in whiteflies following treatment: decrease in acetylcholine esterase (AChE) activity
[2]
  half-maximal mitotoxic concentration (MC50): < 0.7 µM
C. elegans young adults; 40 h of incubation
  Maximum motility inhibition (MMI), C. elegans: 100%
C. elegans young adults; Caenorhabditis elegans, 40 h, read-out: IC50, C. elegans young adult motility, 40 h of incubation
  IC50: 0.22 µM
[3]; 3 h
  Reduction of motility of adult females of H. contortus: ~ 33%
[3]; 6 h
  Reduction of motility of adult females of H. contortus: ~89%
[3]; 12 h
  Reduction of motility of adult females of H. contortus: 100%
[3]; 24 h
  Reduction of motility of adult females of H. contortus: ~100%
H. contortus xL3s; Haemonchus contortus, 90 h, read-out: IC50, H. contortus larval motility inhibition
  IC50: 18 µM
H. contortus xL3s; xL3s, 90 h of incubation
  Maximum motility inhibition (MMI), H. contortus larvae: 98%
